Assay: Crystal precipitability of lidocaine in the tape preparation / ionic liquid
Assay type: physicochemical
Settings: room temperature for several months
Experimental: A content initially inducing the crystal precipitation of lidocaine was examined. […] The crystal precipitability and transdermal absorbability therefor were evaluated. Lidoderm (registered trade name, from Endo, lidocaine content: 5%) was used as a standard material. […]

CC(O)C(=O)O.CCN(CC)CC(=O)Nc1c(C)cccc1C [lactic acid salt of lidocaine]
Crystal precipitation on storage: no crystal precipitation occurred

Reference: patent US8722065B2, “Lidocaine tape preparation” (priority 2007, dated 2014)
